In patent US20220160601A1, “Sunscreen Compositions” (Curie Co. Inc., priority 2020, published 2022):

Columns and labels:
[1] = UV/Vis spectral properties (Cary-50 spectrophotometer); type: physicochemical; settings: for UVA and UVB absorption properties compared to oxybenzone / absorption spectra, regions encompassed: acetonitrile; for UVA and UVB absorption properties compared to oxybenzone: 5 mM or 0.05 mM, FIG. 1; for absorption spectra, regions encompassed: 5 mM (N-Boc-Imine-6 also 0.05 mM), compared to oxybenzone, FIG. 3
Experimental: Imine-1, Imine-2, and Imine-3 were synthesized, purified, and isolated (see above). All three compounds were separately dissolved in acetonitrile to a final concentration of 5 mM (FIG. 1) or 0.05 mM (FIG. 1, inset) and analyzed by UV/Vis (Cary-50 Spectrophotomer). The spectral properties were compared to oxybenzone in acetonitrile.
Carbamate-1, first described in U.S. Pat. No. 5,490,980A, was synthesized, purified, and isolated (see above). Carbamate-1 was dissolved in acetonitrile to a final concentration of 0.05 mM and analyzed by UV/Vis (Cary-50 Spectrophotomer). The spectral properties were compared to oxybenzone in acetonitrile at a final concentration of 0.05 mM.
Imine-4, Imine-5, and N-Boc-Imine-6 were synthesized, purified, and isolated (see above). All three compounds were separately dissolved in acetonitrile to a final concentration of 5 mM (FIG. 3) and analyzed by UV/Vis (Cary-50 Spectrophotomer). N-Boc-Imine-6 was diluted in acetonitrile to a final concentration of 0.05 mM (FIG. 3, inset) and analyzed by UV/Vis. […] Spectral properties were compared to oxybenzone in acetonitrile at the same concentration.
To understand the solution stability of the Boc-protected imines in protic solvent, N-Boc-Imine-6 was prepared in ethanol in the presence of catalytic glacial acetic acid. Briefly, to a solution of oxybenzone (0.10 g, 0.438 mmol, 1 eq) and N-Boc-1,6-hexanediamine (0.094 g, 0.43 mmol, 1 eq) in ethanol (0.3 mL) was added catalytic glacial acetic acid (1 μL). The reaction mixture was agitated at 900 rpm at 70° C. for 16 hr and monitored by LCMS. […] The reaction was then diluted in ethanol to final concentration of 0.04 mM and analyzed by UV/Vis spectroscopy.
N-Boc-Imine-8 and Imine-8 was synthesized, purified, and isolated (see above). N-Boc-Imine-8 and Imine-8 were dissolved in ethanol to a final concentration of 0.032 mM and 8 mM, respectively (FIG. 6) and analyzed by UV/Vis. (Cary-50 Spectrophotomer). Spectral properties were compared to sulisobenzone in ethanol at similar concentration.
Imine-10 was first dissolved in methyl tert-butyl ether and then diluted in ethanol to a final concentration of 5 mM and 0.04 mM (FIG. 7) and analyzed by UV/Vis. (Cary-50 Spectrophotomer). Spectral properties were compared to oxybenzone at similar concentration.

[2] = Solution stability of Boc-protected imine in protic solvent (ethanol); type: physicochemical; settings: 70° C., catalytic glacial acetic acid, LCMS and UV/Vis
Experimental: To understand the solution stability of the Boc-protected imines in protic solvent, N-Boc-Imine-6 was prepared in ethanol in the presence of catalytic glacial acetic acid. Briefly, to a solution of oxybenzone (0.10 g, 0.438 mmol, 1 eq) and N-Boc-1,6-hexanediamine (0.094 g, 0.43 mmol, 1 eq) in ethanol (0.3 mL) was added catalytic glacial acetic acid (1 μL). The reaction mixture was agitated at 900 rpm at 70° C. for 16 hr and monitored by LCMS. Full reaction of the starting material to a single product peak was observed by LCMS indicating completion. The reaction was then diluted in ethanol to final concentration of 0.04 mM and analyzed by UV/Vis spectroscopy. […] Additionally, the Boc-protecting group remained intact throughout the reaction and UV/Vis analysis.

Compound: COc1ccc(/C(=N/O)c2ccccc2)c(O)c1 [Imine-3]
- UVA and UVB absorption properties compared to oxybenzone [1]: loss in the UVA blocking and reduction in UVB blocking

Compound: COc1ccc(/C(=N/Cc2ccccc2)c2ccccc2)c(O)c1 [Imine-1]
- UVA and UVB absorption properties compared to oxybenzone [1]: improved both UVA-1, UVA-2, and UVB absorption properties

Compound: COc1ccc(/C(=N/CCCCCCNC(=O)OC(C)(C)C)c2ccccc2)c(O)c1 [N-Boc-Imine-6]
- absorption spectra, regions encompassed [1]: encompassed the UVA-1, UVA-2, and UVB regions as well as the visible region of the spectrum (greater than 400 nm)
- absorption, regions encompassed ([1]; ethanol, 0.04 mM, FIG. 4): encompasses the UVA and UVB regions as well as the visible region of the spectrum (greater than 400 nm)
- solution stability without reversion to the starting ketone and amine [2]: stable over 24 hours

Compound: COc1ccc(/C(=N/c2ccccc2)c2ccccc2)c(O)c1 [Imine-2]
- UVA and UVB absorption properties compared to oxybenzone [1]: improved both UVA-1, UVA-2, and UVB absorption properties

Compound: CCCCCCOC(=O)c1ccccc1/C(=N/CCCCCCN)c1cccc(N(CC)CC)c1O [Imine-9]
- shift of the absorbance spectra ([1]; data not shown): red shift of the absorbance spectra, which extends to the visible region

Compound: COc1ccc(/C(=N/C(CCC(N)=O)C(=O)O)c2ccccc2)c(O)c1 (stereo not drawn) [Imine-5]
- absorption spectra, regions encompassed [1]: encompassed the UVA-1, UVA-2, and UVB regions as well as the visible region of the spectrum (greater than 400 nm)

Compound: COc1cc(O)c(/C(=N\CCCCCCN)c2ccccc2)cc1S(=O)(=O)O [Imine-8]
- UVA and UVB absorption properties compared to sulisobenzone ([1]; ethanol, N-Boc-Imine-8 0.032 mM, Imine-8 8 mM, FIG. 6): retained absorbance in the UVB region and extended absorbance into the UVA region
